≈ marks a conversion by molar mass, not a printed value.
Tested on: rat peritoneal mast cells (Rattus norvegicus)
Experiment: In vitro histamine-release activity by using peritoneal cells from male Sprague-Dawley rats in a standard assay

ED50: 46 µg/mL (≈ 32.5 µM)
Compound: CC(=O)NC(Cc1ccc2ccccc2c1)C(=O)NC(Cc1ccccc1)C(=O)NC(Cc1ccccc1)C(=O)N[C@@H](CO)C(=O)N[C@@H](Cc1ccc(O)cc1)C(=O)NC(Cc1c[nH]c2ccccc12)C(=O)NC(Cc1ccccc1)C(=O)N[C@@H](CC(C)C)C(=O)N1CCC[C@@H]1C(=O)NC(C)C(N)=O (stereo in doubt)

Source: ChEMBL document CHEMBL1123725, “Effect of reductive alkylation of D-lysine in position 6 on the histamine-releasing activity of luteinizing hormone-releasing hormone antagonists” (1987)
